Each block holds one molecule with its values, some of them ahead of it.
Legend:
Rattus norvegicus [1] = species: Rattus norvegicus; experiment: Compound's potency to increase the level of the dopamine metabolite homovanillic acid (HVA), levels in male wistar rats at 0.54 ug/g dose; type: functional
Rattus norvegicus [2] = species: Rattus norvegicus; experiment: Compound's potency to increase the level of the dopamine metabolite DOPAC levels in male wistar rats at 0.95 ug/g dose; type: functional
Dopamine receptor = Dopamine receptor (Bos taurus, UniProt Q95136+P20288); experiment: Compound was tested for its ability to displace [3H]spiroperidol from dopamine receptor; type: protein assay
Rattus norvegicus [3] = species: Rattus norvegicus; experiment: Compound's potency to increase the level of the dopamine metabolite DOPAC levels in male wistar rats at 1.26 ug/g dose; type: functional
Rattus norvegicus [4] = species: Rattus norvegicus; experiment: Compound's potency to increase the level of the dopamine metabolite homovanillic acid (HVA), levels in male wistar rats at 1.10 ug/g dose; type: functional
Rattus norvegicus [5] = species: Rattus norvegicus; experiment: Compound's potency to increase the level of the dopamine metabolite homovanillic acid (HVA), levels in male wistar rats at 0.39 ug/g dose; type: functional
Rattus norvegicus [6] = species: Rattus norvegicus; experiment: Compound's potency to increase the level of the dopamine metabolite DOPAC levels in male wistar rats at 0.62 ug/g dose; type: functional
Rattus norvegicus [7] = species: Rattus norvegicus; experiment: Compound's potency to increase the level of the dopamine metabolite DOPAC levels in male wistar rats at 0.73 ug/g dose; type: functional
Rattus norvegicus [8] = species: Rattus norvegicus; experiment: Compound's potency to increase the level of the dopamine metabolite homovanillic acid (HVA), levels in male wistar rats at 0.44 ug/g dose; type: functional
Rattus norvegicus [9] = species: Rattus norvegicus; experiment: Compound's potency to increase the level of the dopamine metabolite DOPAC levels in male wistar rats at 0.6 ug/g dose; type: functional
Rattus norvegicus [10] = species: Rattus norvegicus; experiment: Compound's potency to increase the level of the dopamine metabolite DOPAC levels in male wistar rats at 1.15 ug/g dose; type: functional
Rattus norvegicus [11] = species: Rattus norvegicus; experiment: Compound's potency to increase the level of the dopamine metabolite homovanillic acid (HVA), levels in male wistar rats at 0.63 ug/g dose; type: functional

- IC50 (Dopamine receptor): 13000 nM
Structure (SMILES): CN(C)CC1Cc2cccc3c2N(C1)c1cc(Cl)ccc1S3 (stereo not given)
- Control (Rattus norvegicus [1]): 70%
- Control (Rattus norvegicus [2]): 89%

- IC50 (Dopamine receptor): 1200 nM
Structure (SMILES): CN(C)CC1Cc2c(Cl)ccc3c2N(C1)c1ccccc1S3 (stereo not given)
- Control (Rattus norvegicus [3]): 118%
- Control (Rattus norvegicus [4]): 157%

Structure (SMILES): CN(C)C1CCN2c3cc(Cl)ccc3Sc3cccc1c32 (stereo not given)
- Control (Rattus norvegicus [5]): 88%
- Control (Rattus norvegicus [6]): 98%

Structure (SMILES): CN(C)C1CCN2c3ccccc3Sc3ccc(Cl)c1c32 (stereo not given)
- Control (Rattus norvegicus [7]): 115%
- Control (Rattus norvegicus [8]): 100%

Structure (SMILES): CN(C)C1CCN2c3ccccc3Sc3cccc1c32 (stereo not given)
- Control (Rattus norvegicus [9]): 95%
- Control (Rattus norvegicus [8]): 93%

- IC50 (Dopamine receptor): 0.0014 nM
Structure (SMILES): CN(C)CC1Cc2cccc3c2N(C1)c1ccccc1S3 (stereo not given)
- Control (Rattus norvegicus [10]): 107%
- Control (Rattus norvegicus [11]): 90%
